The text below walks through data of patent US20080019926A1, “Lung Surfactant Supplements” (priority 2004, published 2008).

Entries after “also recorded” stand apart in the source; their conditions may differ.

Common to all, as to format: physicochemical
Assay [1] in a line: Compression isotherm (surface pressure versus molecular area) of a Langmuir DPPC monolayer as pulmonary surfactant model. As for the experimental part:
The monolayer of native pulmonary surfactant was modeled by a Langmuir monolayer of DPPC. In this model, the DPPC molecules were spread using a spreading solvent onto the surface of water contained in a trough coated with Teflon®. After evaporation of the solvent, the DPPC molecules were progressively compressed using two mobile Teflon® barriers. The variation of the surface pressure was measured as a function of the compression by a pressure sensor such as a Wilhelmy blade.
Small quantities of perfluorooctyl bromide (PFOB) in liquid form (1-200 μl), contacted with the DPPC monolayer, result in the disappearance of the liquid expanded/liquid condensed phase transition of the phospholipid. […] FIG. 1 compares the compression isotherms of a DPPC monolayer alone and in contact with the fluorocarbon. In absence of fluorocarbon, one notes the presence of a plateau reflecting the coexistence of the expanded liquid state (fluid phase) and the condensed liquid state (crystalline islets). […] The DPPC monolayer is totally fluid.
Placing the Langmuir trough in a close space saturated with PFOB vapour, it is possible to study the interactions between the DPPC monolayer and the gaseous PFOB.

A short description of assay [2]: Grazing incidence X-ray diffraction of the DPPC monolayer. The note with it: gaseous fluorocarbon, DPPC monolayer compressed at 40 mN·m^−1. From the text: The two diffraction peaks seen in the absence of fluorocarbon are characteristics of the molecular organisation of DPPC in crystalline islets (▪).
Assay [3] in a line: Fluorescence microscopy of the DPPC monolayer contacted with gaseous fluorocarbon. From the text: Fluorescence microscopy makes it possible to visualize the dissolution of crystalline islets of DPPC molecules when the monolayer is contacted with gaseous PFOB (FIG. 3A).
[4] abbreviates: gaseous fluorocarbon, saturated atmosphere.

Turning to `FC(F)(F)C(F)(F)C(F)(F)C(F)(F)C=CC(F)(F)C(F)(F)C(F)(F)C(F)(F)F` [Example F-44E, bis(perfluorobutyl)ethene], the “plateau reflecting the coexistence of the expanded liquid state (fluid phase) and the condensed liquid state (crystalline islets) in the DPPC compression isotherm” value in assay [1] (setting [4]) is on record as “no longer seen; also recorded: disappears”. In addition, the “diffraction peaks characteristic of DPPC crystalline islets / crystalline islets” value in assay [2] was “these peaks have disappeared; also recorded: disappearance of the crystalline islets”.
Regarding `FC(F)(F)C(F)(F)C(F)(F)C(F)(F)C(F)(F)C(F)(F)C(F)(F)C(F)(F)Br` [PFOB, 1-bromo-heptadecafluorooctane], the “state of the DPPC monolayer” value in assay [1] (gaseous fluorocarbon) and in assay [1] (liquid fluorocarbon) was “totally fluid” each time. Also, the “plateau reflecting the coexistence of the expanded liquid state (fluid phase) and the condensed liquid state (crystalline islets) in the DPPC compression isotherm” value in assay [1] (setting [4]) is “no longer seen; also recorded: disappears”; in assay [1] (liquid fluorocarbon (1-200 μl) contacted with the DPPC monolayer), “no longer seen; also recorded: disappeared totally”. Moreover, the “crystalline islets of DPPC seen by fluorescence microscopy, course with time” value in assay [3] (monolayer compressed at 10 mN·m^−1, 3, 5 and 7 min) is on record as “progressively disappear”. Also, the “crystalline islets of DPPC seen by fluorescence microscopy” value in assay [3] (monolayer compressed at 10 mN·m^−1, after 3 minutes) is “becomes small”; in assay [3] (monolayer compressed at 10 mN·m^−1, after 5 minutes), “almost completely re-spread”; in assay [3] (monolayer compressed at 10 mN·m^−1, after 7 minutes), “completely disappeared”.
